The values that follow come from patent US10519138B2, “Modulators of SOCE, compositions, and uses thereof” (Università degli Studi del Piemonte Orientale “Amedeo …, priority 2016, dated 2019).

One assay concerns STIM1 mutated proteins. Description: SOCE in HEK cells overexpressing wild-type or mutated STIM1 (Fura2-AM single cell analysis). Format: cell-based, human. As to conditions: 10 μM. The protocol: (§1) SOCE induced by tBHQ in wilde-type HEK cells or HEK cells overexpressing the indicated STIM1 (A) or Orai1 (B) proteins. Average traces of approx. 600 cells from 20 coverslips performed on 4 separate days for each condition.
(§2) 3-(1-(4-(4-(ethoxycarbonyl)-5-(trifluoromethyl)-1H-pyrazol-1-yl)phenyl)-1H-1,2,3-triazol-4-yl)benzoic acid 10 μM impairs SOCE both in Wild-type and STIM1 (A) or Orai1 (B) mutated cells.
(§3) HEK STIM1 c.326A>G p.H109R (A) and HEK Orai1 c.734C>T p.P245L (B) cells were assayed for a calcium response to different concentrations of 3-(1-(4-(4-(ethoxycarbonyl)-5-(trifluoromethyl)-1H-pyrazol-1-yl)phenyl)-1H-1,2,3-triazol-4-yl)benzoic acid (1-3-10-30-100 μM) using Fura2-AM single cell analysis. Concentration-response curves represent the AUC % of 3-(1-(4-(4-(ethoxycarbonyl)-5-(trifluoromethyl)-1H-pyrazol-1-yl)phenyl)-1H-1,2,3-triazol-4-yl)benzoic acid.
(§4) Human embryonic kidney HEK cells were obtained from ATCC (ATCC® CRL-1573™, Rockville, Md., USA) and were cultured in Dulbecco's Modified Eagle's Medium (DMEM; Sigma-Aldrich, Italy), supplemented with 10% heat-inactivated FBS (Gibco, Italy), 1-glutamine 50 mg/mL (Sigma-Aldrich, Italy), penicillin 10 U/mL and streptomycin […] (Sigma-Aldrich, Italy) at 37° C., under a 5% CO2 humidified atmosphere. […]

In assay [1] the test system is Store Operated Calcium Entry (SOCE) in BV-2 cells. Kind of assay: Fluo-4 fluorimetric assay of tBHQ-induced store operated calcium entry in BV-2 cells. The assay is classed as cell-based, mouse. The protocol:
(A) BV-2 cells were plated in poly-d-lysine coated 24-well plate and incubated overnight. After 24 hours, cells were loaded with 2 μM Fluo-4 and placed in an extracellular solution containing 0 mM Ca^2+. Stores were depleted with 50 μM tBHQ and calcium influx was stimulated by the addition of 2 mM Ca^2+ alone (Ctrl), or in conbination with: compound with no activity (NM-3A), and compounds that positively (4-(1-(4-(3,5-bis(trifluoromethyl)-1H-pyrazol-1-yl)phenyl)-1H-1,2,3-triazol-4-yl)benzoic acid) and negatively (3-(1-(4-(4-(ethoxycarbonyl)-5-(trifluoromethyl)-1H-pyrazol-1-yl)phenyl)-1H-1,2,3-triazol-4-yl)benzoic acid) regulate SOCE. Calcium responses are expressed as changes in fluorescence intensity before and after the addition of selected modulators. (B) BV-2 cells were assayed for a calcium response to different concentrations of 3-(1-(4-(4-(ethoxycarbonyl)-5-(trifluoromethyl)-1H-pyrazol-1-yl)phenyl)-1H-1,2,3-triazol-4-yl)benzoic acid and 4-(1-(4-(3,5-bis(trifluoromethyl)-1H-pyrazol-1-yl)phenyl)-1H-1,2,3-triazol-4-yl)benzoic acid (0.1-0.3-1-3-10-30-100 μM) using Fluo-4 fluorimetric assay. Concentration-response curves represent the AUC % of both compounds as compared to positive control.
Immortalized primary mouse microglial BV-2 cells were obtained from ATCC (ATCC® CRL-2540™, Rockville, Md., USA) and were cultured in Dulbecco's Modified Eagle's Medium (DMEM; Sigma-Aldrich, Italy), supplemented with 10% heat-inactivated FBS (Gibco, Italy), 1-glutamine 50 mg/mL (Sigma-Aldrich, Italy), penicillin 10 U/mL and streptomycin […] (Sigma-Aldrich, Italy) at 37° C., under a 5% CO2 humidified atmosphere. For experiments, the cells were plated 2×10^4 per ml in 24 well plates) or onto glass coverslips at concentrations of 4×10^4 per mL (24 mm diame-ter coverslips in 6 well plates).
BV-2 cells were loaded with 5 μM Fluo-4 AM in presence of 0.02% of Pluronic-127 (both from Life Technologies, Italy) and 10 μM sulfinpyrazone in Krebs-Ringer buffer (KRB, 135 mM NaCl, 5 mM KCl, 0.4 mM KH2PO4, 1 mM MgSO4, 5.5 mM glucose, 20 mM HEPES, pH 7.4) containing 2 mM CaCl2 (30 min, room temperature). Subsequently, cells were washed and incubated with KRB for other 30 min to allow de-esterification of Fluo-4 AM. Experiments were carried out prior to and during exposure of the cells to the Ca^2+-free solution. In the absence of Ca^2+, the intracellular Ca^2+ stores were depleted by 2,5-t-butylhydroquinone (tBHQ, 50 μM; Sigma-Aldrich, Italy), a SERCA poison, and then calcium 2 mM was re-added to the extracellular solution. Fluorescence is then monitored sequentially for a second in each well for 600 seconds with excitation at 494 nm and an emission wavelength at 516 nm on the V3 Victor plate-reader (Perkin Elmer), generating time-curves for each well. Data were analysed using Microsoft Excel and GraphPad Prism.
The percentage of SOCE inhibition for each compound was determined based on value of tBHQ-induced calcium influx into BV-2 cells (Table 2).

Assay [2] relates to Store Operated Calcium Entry (SOCE) in Jurkat cells. Description: Fura-2 single-cell Ca2+ measurement of tBHQ-induced SOCE in Jurkat cells. The assay is classed as cell-based, human. As to conditions: Homo sapiens, SOCE modulation based on tBHQ-induced calcium influx. On the procedure:
Immortalized line of human T lymphocyte Jurkat cells were achieved from ATCC (ATCC® TIB-152™, Rockville, Md., USA) and were cultured in Roswell Park Memorial Institute Medium (RPMI 1640; Sigma-Aldrich, Italy), supplemented with 10% heat-inactivated FBS (Gibco, Italy), 1-glutamine 50 mg/mL (Sigma-Aldrich, Italy), penicillin 10 U/mL and streptomycin […] (Sigma-Aldrich, Italy) at 37° C., under a 5% CO2 humidified atmosphere. For experiments, the cells were plated onto glass coverslips at concentrations of 6×10^4 per mL (24 mm diameter coverslips in 6 well plates).
Compounds were also tested on Jurkat cells in single-cell analysis using Fura-2 AM on cover-slips. Jurkat cells were loaded with 5 μM Fura-2 AM in presence of 0.02% of Pluronic-127 (both from Life Technologies, Italy) and 1 μM sulfinpyrazone in Krebs-Ringer buffer (KRB, 135 mM NaCl, 5 mM KCl, 0.4 mM KH2PO4, 1 mM MgSO4, 5.5 mM glucose, 20 mM HEPES, pH 7.4) containing 2 mM CaCl2 (30 min, room temperature). Afterwards, cells were washed and incubated with KRB for other 30 min to allow de-esterification of Fura-2AM. To measure store operated calcium entry, changes in cytosolic Ca^2+ were monitored upon depletion of the intracellular Ca^2+ stores. Experiments were carried out prior to and during exposure of the cells to the Ca^2+-free solution. In the absence of Ca^2+, the intracellular Ca^2+ stores were depleted by inhibition of the vesicular Ca^2+ pump by 2,5-t-butylhydroquinone (tBHQ, 50 μM; Sigma-Aldrich, Italy). Re-addition of 2 mM Ca^2+ allowed assessing the SOCE. During the experiments the cover-slips were mounted into acquisition chamber and placed on the stage of a Leica DMI6000 epi-fluorescent microscope equipped with S Fluor ×40/1.3 objective. Fura-2 was excited by alternate 340 and 380 nm using a Polychrome IV mono-chromator (Till Photon-ics, Germany) and the probe emission light was filtered through 520/20 band-pass filter and collected by a cooled CCD camera (Hamamatsu, Japan). The fluorescence signals were acquired and processed using MetaFluor software (Molecular Device, Sun-Nyvale, C A, USA). To quantify the differences in the amplitudes of Ca^2+ transients the ratio values were normalized using the formula ΔF/F0 (referred to as normalized Fura-2 ratio, “Norm. Fura ratio”). The percentage of SOCE modulation for each of 15 compounds was determined based on value of tBHQ-induced calcium influx into Jurkat cells. Data were analysed using Microsoft Excel and GraphPad Prism.

The test system of another assay is Orai1 mutated proteins. Kind of assay: SOCE in HEK cells overexpressing wild-type or mutated Orai1 (Fura2-AM single cell analysis). To be noted: 10 μM. The assay is classed as cell-based, human. The protocol: as §1, §2, §3, §4

Entries after “also recorded” stand apart in the source; their conditions may differ.

Usually inhibition stands for the share of the control response that was lost under treatment. Take `CCOC(=O)c1cnn(-c2ccc(-n3cc(-c4cccc(C(=O)O)c4)nn3)cc2)c1C(F)(F)F` [3-(1-(4-(4-(ethoxycarbonyl)-5-(trifluoromethyl)-1H-pyrazol-1-yl)phenyl)-1H-1,2,3-triazol-4-yl)benzoic acid]: the “Effect on SOCE in wild-type and STIM1 mutated cells (FIG. 4A)” value with STIM1 mutated proteins is given as “impairs SOCE; also recorded: able to revert the over-activation”. In addition, in assay [1] (Fluo-4, 50 μM tBHQ, 2 mM Ca2+ re-addition), the “Regulation of SOCE (calcium response, representative traces FIG. 2A)” value is on record as “negatively”. Also, the inhibition at 10 µM in assay [1] (Mus musculus, 10 μM, SOCE inhibition based on tBHQ-induced calcium influx) is 45.3%; in assay [2], 70.4%. Further, the “Effect on SOCE in wild-type and Orai1 mutated cells (FIG. 4B)” value in the assay with Orai1 mutated proteins is on record as “impairs SOCE; also recorded: able to revert the over-activation”.
